Assay: Side effects (stomach discomfort, nausea) in individuals given 5-ALA
Format: in vivo, human
Description: A total of eight individuals including seven healthy volunteers in whom no particular abnormality was found by health examination and the like and one volunteer with a malignant tumor, who was given a diagnosis of cancer by a doctor, were studied. The average body weight of the volunteers was 50 kg. The volunteers were instructed to ingest one capsule encapsulating 100 mg of 5-ALA before sleep and collect the first urine at the time of wake-up. Also, they were instructed to ingest, on another day, three capsules, each encapsulating 100 mg of 5-ALA, before sleep and collect the first urine at the time of wake-up.
From the above results, it was shown that administration at a dose of 300 mg can distinguish between not only the presence and absence of a tumor, but also a malignant tumor and a benign tumor. Also, it was shown that a malignant tumor can be detected by administering 100 mg of 5-ALA.
A total of 10 individuals including five healthy volunteers in whom no particular abnormality was found by health examination and the like and five volunteers with a malignant tumor, who were given a diagnosis of cancer by a doctor, ingested 1 g of 5-ALA. […]

NCC(=O)CCC(=O)O [5-ALA, 5-aminolevulinic acid]
stomach discomfort and nausea (100 mg and 300 mg 5-ALA oral, eight individuals): neither stomach discomfort nor nausea was observed
stomach discomfort and nausea (1 g 5-ALA ingested, 10 individuals): some of the volunteers developed stomach discomfort and nausea
